From publication PMC7643960 (PLoS ONE, 2020)
pIC50: −log10 of the molar value.

Columns and labels:
Format in all cases: cell-based, horse
[1] = test system: equine sarcoid [ES] cells sRGO2; experiment: SRB assay after 96 h; conditions: sRGO2, 96 h of drug exposure
Experimental: (§1) Approximately 7.5 × 10^5 cells (MelDuWi) and 1.0 × 10^6 cells (PriFri2 and sRGO2) were seeded in 25 cm^2 cell culture flasks. […] Following 24 and 48 h of incubation, the cells were harvested by mild trypsinization and washed twice with phosphate-buffered saline (PBS) buffer (containing Mg^2+ and Ca^2+). Cells (1.0 × 10^6) were fixed with ethanol (70%, -20°C, for 24 h). After discarding the ethanol, the cells were washed in 1 mL PBS buffer (containing Mg^2+ and Ca^2+) and were centrifuged. The cell pellet was resuspended in 1 mL of staining PBS buffer (containing Mg^2+ and Ca^2+, 10 μg/mL RNASe [Thermofisher] and 15 μg/mL propidium iodide [Sigma-Aldrich, Munich, Germany]) and was incubated for 30 min at room temperature. Analyses were performed using the Attune® FACS machine (Life Technologies, Darmstadt, Germany) collecting data from the BL-2A channel. Doublet cells were excluded from the measurements by plotting BL-2A against BL-2H. A total of 20,000 events were collected for each cell cycle distribution. Each sample was measured in duplicate.
(§2) S1 Appendix. IC50 values measured by SRB Assay after 96 h. […] Measurements were carried out at least as thrice determination.

[2] = test system: equine dermal fibroblasts PriFi2; experiment: SRB assay after 96 h; conditions: PriFri2, 96 h of drug exposure
Experimental: as §1, §2

[3] = test system: equine malignant melanoma [EMM] cells MelDuWi; experiment: SRB assay after 96 h; conditions: 96 h of drug exposure
Experimental: as §1, §2

[4] = test system: primary EMM cells MelDuWi; experiment: crystal violet staining assay (CVS), proliferation; conditions: for pIC50: mean (95% CI)
Experimental: (§3) All cells used for the experiments originate from different horses. Primary EMM cells (MelDuWi) and primary equine dermal fibroblasts (PriFi1, PriFi2) belong to the cell culture stock of the Clinic for Horses, University of Veterinary Medicine Hannover, Foundation, Hannover, Germany.
(§4) The proliferation assay was performed as published. […] Control cells were treated with medium only. The proportion of cells treated relative to untreated controls was determined by crystal violet staining and photometric absorbance measurement at the incubation time points mentioned above. Proliferation assays were performed in six to eight biological replicates with two technical replicates for each combination of cell type, incubation time and compound concentration.
(§5) Technical duplicates with a coefficient of variation of more than 20% were excluded from the cell assay analysis. […] Additional statistical data analysis was conducted with R 3.5.1.. A generalized additive model was fitted for each test (MTS and CVS) and cell type comparison (primary EMM cells and fibroblasts, and primary ES cells and fibroblasts) using the ‘mgcv’ package. Compound concentrations and the duration of incubation were modeled as tensor product smooth interacting with compound and cell line. Cell passage was added as a random effect. An appropriate distribution was selected by the visual inspection of residuals. The p-values were obtained by performing a Wald test for each parameter. Statistical significance was set at 0.05.

[5] = test system: primary equine dermal fibroblasts PriFi2; experiment: crystal violet staining assay (CVS), proliferation; conditions: for pIC50: mean (95% CI)
Experimental: as §3, §4, §5

primary EMM cells eRGO1 = experiment: crystal violet staining assay (CVS), proliferation; conditions: for pIC50: mean (95% CI)
Experimental: as §3, §4, §5

primary ES cells sRGO2 = experiment: crystal violet staining assay (CVS), proliferation; conditions: for pIC50: mean (95% CI)
Experimental: as §3, §4, §5

[6] = test system: primary equine dermal fibroblasts PriFi1; experiment: crystal violet staining assay (CVS), proliferation; conditions: for pIC50: mean (95% CI)
Experimental: as §3, §4, §5

primary ES cells sRGO1 = experiment: crystal violet staining assay (CVS), proliferation; conditions: for pIC50: mean (95% CI)
Experimental: as §3, §4, §5

EMM cells MelDuWi = experiment: cell cycle investigation by flow cytometry (propidium iodide); conditions: double IC50 concentration
Experimental: as §1

[7] = test system: equine dermal fibroblasts PriFri2; experiment: as above; conditions: double IC50 concentration
Experimental: as §1

ES cells sRGO2 = experiment: as above; conditions: double IC50 concentration
Experimental: as §1

C=C(C)[C@@H]1CC[C@]2(COS(N)(=O)=O)CC[C@]3(C)[C@H](CC[C@@H]4[C@@]5(C)CC[C@H](OS(N)(=O)=O)C(C)(C)[C@@H]5CC[C@]43C)[C@@H]12 [BBS, (3β)-Lup-20(29)-ene-3,28-diol, 3,28-disulfamate]
pIC50 [1]: 4.61 | pIC50 [2]: 4.71 | pIC50 [3]: 4.83 | pIC50 ([4]; 5 h): < 4.00 | pIC50 ([4]; 24 h): 4.30 | pIC50 ([4]; 48 h): 4.44 | pIC50 ([4]; 96 h): 4.80 | pIC50 ([5]; PriFi2, 5 h): < 4.00 | pIC50 ([5]; PriFi2, 24 h): 4.21 | pIC50 ([5]; PriFi2, 48 h): 4.41 | pIC50 ([5]; PriFi2, 96 h): 4.80 | pIC50 (primary EMM cells eRGO1; eRGO1, 5 h): < 4.00 | pIC50 (primary EMM cells eRGO1; eRGO1, 24 h): 4.38 | pIC50 (primary EMM cells eRGO1; eRGO1, 48 h): 4.60 | pIC50 (primary EMM cells eRGO1; eRGO1, 96 h): 4.82 | pIC50 (primary ES cells sRGO2; sRGO2, 5 h): < 4.00 | pIC50 (primary ES cells sRGO2; sRGO2, 24 h): 4.42 | pIC50 (primary ES cells sRGO2; sRGO2, 48 h): 4.54 | pIC50 ([6]; PriFi1, 5 h): < 4.00 | pIC50 ([6]; PriFi1, 24 h): 4.28 | pIC50 ([6]; PriFi1, 48 h): 4.38 | pIC50 ([6]; PriFi1, 96 h): 4.77 | pIC50 (primary ES cells sRGO1; sRGO1, 5 h): < 4.00 | pIC50 (primary ES cells sRGO1; sRGO1, 24 h): 4.40 | pIC50 (primary ES cells sRGO1; sRGO1, 48 h): 4.64 | Cell cycle percentage G1/G0 (EMM cells MelDuWi; 24 h): 68,2% | Cell cycle percentage M (EMM cells MelDuWi; 24 h): 0,5% | Cell cycle percentage S (EMM cells MelDuWi; 24 h): 23,9% | Cell cycle percentage SubG1 (EMM cells MelDuWi; 24 h): 6,7% | Cell cycle percentage G1/G0 (EMM cells MelDuWi; 48 h): 48,2% | Cell cycle percentage M (EMM cells MelDuWi; 48 h): 0,3% | Cell cycle percentage S (EMM cells MelDuWi; 48 h): 7,6% | Cell cycle percentage G1/G0 ([7]; PriFri2, 24 h): 79,1% | Cell cycle percentage M ([7]; PriFri2, 24 h): 1,0% | Cell cycle percentage S ([7]; PriFri2, 24 h): 12,1% | Cell cycle percentage SubG1 ([7]; PriFri2, 24 h): 7,1% | Cell cycle percentage G1/G0 ([7]; PriFri2, 48 h): 73,7% | Cell cycle percentage M ([7]; PriFri2, 48 h): 0,9% | Cell cycle percentage S ([7]; PriFri2, 48 h): 10,8% | Cell cycle percentage SubG1 ([7]; PriFri2, 48 h): 13,7% | Cell cycle percentage G1/G0 (ES cells sRGO2; sRGO2, 24 h): 71,9% | Cell cycle percentage M (ES cells sRGO2; sRGO2, 24 h): 1,6% | Cell cycle percentage S (ES cells sRGO2; sRGO2, 24 h): 21,8% | Cell cycle percentage SubG1 (ES cells sRGO2; sRGO2, 24 h): 5,3% | Cell cycle percentage G1/G0 (ES cells sRGO2; sRGO2, 48 h): 63,2% | Cell cycle percentage M (ES cells sRGO2; sRGO2, 48 h): 1,8% | Cell cycle percentage S (ES cells sRGO2; sRGO2, 48 h): 16,7% | Cell cycle percentage SubG1 (ES cells sRGO2; sRGO2, 48 h): 17,5%

C=C(C)[C@@H]1CC[C@]2(C(=O)OCC(N)(CO)CO)CC[C@]3(C)[C@H](CC[C@@H]4[C@@]5(C)CC[C@H](OC(C)=O)C(C)(C)[C@@H]5CC[C@]43C)[C@@H]12 [NVX-207, 3-acetyl-betulinic acid-2-amino-3-hydroxy-2-hydroxymethyl-propanoate]
pIC50 [1]: 5.51 | pIC50 [2]: 5.42 | pIC50 [3]: 5.43 | pIC50 ([4]; 5 h): 4.70 | pIC50 ([4]; 24 h): 4.80 | pIC50 ([4]; 48 h): 4.92 | pIC50 ([4]; 96 h): 5.40 | NVX-207 exceeded BBSs' antiproliferative effects ([4]; after 48 h, CVS): ~3 times | pIC50 ([5]; PriFi2, 5 h): 4.85 | pIC50 ([5]; PriFi2, 24 h): 5.10 | pIC50 ([5]; PriFi2, 48 h): 5.15 | pIC50 ([5]; PriFi2, 96 h): > 6.00 | NVX-207 exceeded BBSs' antiproliferative effects ([5]; PriFi2, after 48 h, CVS): ~6 times | pIC50 (primary EMM cells eRGO1; eRGO1, 5 h): 5.00 | pIC50 (primary EMM cells eRGO1; eRGO1, 24 h): 5.30 | pIC50 (primary EMM cells eRGO1; eRGO1, 48 h): > 6.00 | pIC50 (primary EMM cells eRGO1; eRGO1, 96 h): > 6.00 | NVX-207 exceeded BBSs' antiproliferative effects (primary EMM cells eRGO1; eRGO1, after 48 h, CVS): about 25 times | pIC50 (primary ES cells sRGO2; sRGO2, 5 h): 5.22 | pIC50 (primary ES cells sRGO2; sRGO2, 24 h): > 6.00 | pIC50 (primary ES cells sRGO2; sRGO2, 48 h): > 6.00 | NVX-207 exceeded BBSs' antiproliferative effects (primary ES cells sRGO2; sRGO2, after 48 h, CVS): ~29 times | pIC50 ([6]; PriFi1, 5 h): 4.96 | pIC50 ([6]; PriFi1, 24 h): 5.40 | pIC50 ([6]; PriFi1, 48 h): 5.70 | pIC50 ([6]; PriFi1, 96 h): > 6.00 | NVX-207 exceeded BBSs' antiproliferative effects ([6]; PriFi1, after 48 h, CVS): about 23 times | pIC50 (primary ES cells sRGO1; sRGO1, 5 h): 5.15 | pIC50 (primary ES cells sRGO1; sRGO1, 24 h): 5.15 | pIC50 (primary ES cells sRGO1; sRGO1, 48 h): > 6.00 | NVX-207 exceeded BBSs' antiproliferative effects (primary ES cells sRGO1; sRGO1, after 48 h, CVS): about 23 times | Cell cycle percentage G1/G0 (EMM cells MelDuWi; 24 h): 77,4% | Cell cycle percentage M (EMM cells MelDuWi; 24 h): 0,8% | Cell cycle percentage S (EMM cells MelDuWi; 24 h): 14,4% | Cell cycle percentage SubG1 (EMM cells MelDuWi; 24 h): 7,1% | Cell cycle percentage G1/G0 (EMM cells MelDuWi; 48 h): 26,8% | Cell cycle percentage M (EMM cells MelDuWi; 48 h): 0,3% | Cell cycle percentage S (EMM cells MelDuWi; 48 h): 12,9% | Cell cycle percentage G1/G0 ([7]; PriFri2, 24 h): 43,1% | Cell cycle percentage M ([7]; PriFri2, 24 h): 1,3% | Cell cycle percentage S ([7]; PriFri2, 24 h): 10,8% | Cell cycle percentage SubG1 ([7]; PriFri2, 24 h): 44,1% | Cell cycle percentage G1/G0 ([7]; PriFri2, 48 h): 14,8% | Cell cycle percentage M ([7]; PriFri2, 48 h): 0,1% | Cell cycle percentage S ([7]; PriFri2, 48 h): 2,9% | Cell cycle percentage SubG1 ([7]; PriFri2, 48 h): 81,9% | Cell cycle percentage G1/G0 (ES cells sRGO2; sRGO2, 24 h): 76,6% | Cell cycle percentage M (ES cells sRGO2; sRGO2, 24 h): 6,4% | Cell cycle percentage S (ES cells sRGO2; sRGO2, 24 h): 15,8% | Cell cycle percentage SubG1 (ES cells sRGO2; sRGO2, 24 h): 0,6% | Cell cycle percentage G1/G0 (ES cells sRGO2; sRGO2, 48 h): 64,5% | Cell cycle percentage M (ES cells sRGO2; sRGO2, 48 h): 3,9% | Cell cycle percentage S (ES cells sRGO2; sRGO2, 48 h): 13,7% | Cell cycle percentage SubG1 (ES cells sRGO2; sRGO2, 48 h): 17,1%
